ChEMBL document CHEMBL3779889, “Synthetic approaches to the 2014 new drugs” (Bioorg Med Chem, 2016)
pEC50, pIC50, pKi: −log10 of the molar value. Counter-ions that a name gives are not always drawn.

Experiments:
[1] = target: T1, Sodium/glucose cotransporter 2 (Homo sapiens, UniProt P31639); test: Competitive inhibition of human SGLT2 expressed in CHO-K1 cells assessed as inhibition of [14C]-alpha-methylglucoside uptake; type: cell-based
T1 sequence (P31639 whole entry): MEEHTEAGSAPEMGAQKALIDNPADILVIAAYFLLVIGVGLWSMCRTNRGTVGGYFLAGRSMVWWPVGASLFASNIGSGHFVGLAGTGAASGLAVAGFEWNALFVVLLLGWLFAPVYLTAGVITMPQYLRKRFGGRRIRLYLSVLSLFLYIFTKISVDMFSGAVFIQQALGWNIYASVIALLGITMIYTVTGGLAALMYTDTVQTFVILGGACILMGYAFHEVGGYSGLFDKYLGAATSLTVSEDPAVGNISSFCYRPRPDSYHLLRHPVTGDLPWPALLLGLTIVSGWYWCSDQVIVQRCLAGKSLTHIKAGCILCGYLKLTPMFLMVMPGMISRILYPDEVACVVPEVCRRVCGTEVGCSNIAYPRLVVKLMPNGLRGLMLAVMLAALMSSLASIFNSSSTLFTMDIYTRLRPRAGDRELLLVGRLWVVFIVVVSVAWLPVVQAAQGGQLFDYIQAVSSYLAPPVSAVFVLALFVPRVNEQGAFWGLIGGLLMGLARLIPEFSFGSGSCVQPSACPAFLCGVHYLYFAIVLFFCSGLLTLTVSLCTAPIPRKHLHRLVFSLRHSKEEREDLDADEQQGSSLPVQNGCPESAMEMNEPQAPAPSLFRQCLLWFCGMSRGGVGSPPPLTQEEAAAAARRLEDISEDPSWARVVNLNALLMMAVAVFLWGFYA

Hepatitis C virus = test: Antiviral activity against HCV genotype 1a; type: functional, organism-based, Hepacivirus hominis; details: subtype 1a
[2] = Half life of compound in human plasma in presence of CYP3A inhibitor ritonavir; type: ADME, organism-based; details: with ritonavir (CYP3A inhibitor)
[3] = target: Vascular endothelial growth factor receptor 2 (Homo sapiens, UniProt P35968); test: Inhibition of VEGF2 receptor (unknown origin) by ELISA
Vascular endothelial growth factor receptor 2, sequence (P35968 whole entry): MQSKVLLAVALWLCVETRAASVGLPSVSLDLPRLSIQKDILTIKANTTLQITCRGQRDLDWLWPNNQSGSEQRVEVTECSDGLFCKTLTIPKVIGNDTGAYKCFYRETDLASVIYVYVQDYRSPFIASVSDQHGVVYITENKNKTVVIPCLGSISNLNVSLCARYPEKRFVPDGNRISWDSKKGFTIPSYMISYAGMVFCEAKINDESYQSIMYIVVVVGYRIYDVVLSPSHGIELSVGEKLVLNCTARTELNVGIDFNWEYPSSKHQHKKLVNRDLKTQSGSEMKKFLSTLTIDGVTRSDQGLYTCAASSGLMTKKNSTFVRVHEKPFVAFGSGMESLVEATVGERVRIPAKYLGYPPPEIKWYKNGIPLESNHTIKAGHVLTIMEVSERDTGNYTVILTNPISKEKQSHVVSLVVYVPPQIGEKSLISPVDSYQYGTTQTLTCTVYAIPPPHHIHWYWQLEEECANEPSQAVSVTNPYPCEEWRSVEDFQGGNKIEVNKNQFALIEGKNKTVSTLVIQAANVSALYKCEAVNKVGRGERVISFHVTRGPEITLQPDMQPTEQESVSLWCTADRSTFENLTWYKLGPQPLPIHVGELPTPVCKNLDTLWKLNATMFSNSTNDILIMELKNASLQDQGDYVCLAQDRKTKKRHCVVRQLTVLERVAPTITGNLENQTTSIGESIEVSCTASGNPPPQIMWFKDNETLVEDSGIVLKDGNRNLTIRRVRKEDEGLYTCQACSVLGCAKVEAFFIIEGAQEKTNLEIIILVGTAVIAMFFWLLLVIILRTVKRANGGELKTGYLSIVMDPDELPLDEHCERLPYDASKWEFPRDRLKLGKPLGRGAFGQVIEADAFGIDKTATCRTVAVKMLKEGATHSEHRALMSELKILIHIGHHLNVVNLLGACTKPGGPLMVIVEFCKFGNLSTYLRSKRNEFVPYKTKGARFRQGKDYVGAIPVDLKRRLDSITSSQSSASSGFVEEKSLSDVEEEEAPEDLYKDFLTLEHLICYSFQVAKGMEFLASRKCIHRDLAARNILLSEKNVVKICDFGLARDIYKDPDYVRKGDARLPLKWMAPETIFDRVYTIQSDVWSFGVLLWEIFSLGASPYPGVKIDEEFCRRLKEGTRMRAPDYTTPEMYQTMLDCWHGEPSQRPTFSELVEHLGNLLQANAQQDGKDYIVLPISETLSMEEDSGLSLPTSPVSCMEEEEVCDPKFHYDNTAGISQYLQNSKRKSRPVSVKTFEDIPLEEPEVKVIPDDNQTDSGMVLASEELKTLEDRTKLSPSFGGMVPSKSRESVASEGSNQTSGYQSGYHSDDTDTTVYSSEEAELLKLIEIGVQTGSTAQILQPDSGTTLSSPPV

With CCOc1ccc(Cc2cc([C@@H]3S[C@H](CO)[C@@H](O)[C@H](O)[C@H]3O)c(OC)cc2C)cc1 as the compound, how does the pKi [1] read?
Its pKi is 8.96.

With Cc1cnc(C(=O)N[C@H]2CCCCC/C=C\[C@@H]3C[C@@]3(C(=O)NS(=O)(=O)C3CC3)NC(=O)[C@@H]3C[C@@H](Oc4nc5ccccc5c5ccccc45)CN3C2=O)cn1.O.O as the compound, how does the pEC50 (Hepatitis C virus) read?
Its pEC50 is 9.00.

And the half-life [2]?
Its half-life is 5.5 h.

With N#CC1(c2ccc(NC(=O)c3cccnc3NCc3ccncc3)cc2)CCCC1 [RIVOCERANIB MESYLATE] as the compound, how does the pIC50 [3] read?
The pIC50 was 9.00.
